{"source": "patent US20110172163A1", "about": "“Novel Protease Inhibitors” (QUEENSLAND UNIVERSITY OF TECHNOLOGY, priority 2008, published 2011)", "key": {"bovine α-chymotrypsin": {"biological_target": "T1, bovine α-chymotrypsin (Bos taurus, UniProt P00766)", "T1 construct": "purchased Sigma Chemicals", "assay": "Inhibitor kinetics: α-chymotrypsin amidolytic activity", "assay_type": "biochemical", "conditions": "substrate W-pNA (0.2 mM)", "description": "(§1) All enzymes and substrates were obtained from Sigma Chemicals if not otherwise specified. […] The release of pNa moiety was monitored as described above for 7 minutes with each point being the average of three independent triplicate reactions. IC50 was determined using the Prism 5 software suite (GraphPad software Inc.)."}, "KLK5": {"biological_target": "KLK5 (Homo sapiens, UniProt Q9Y337)", "sequence (Q9Y337 23-293)": "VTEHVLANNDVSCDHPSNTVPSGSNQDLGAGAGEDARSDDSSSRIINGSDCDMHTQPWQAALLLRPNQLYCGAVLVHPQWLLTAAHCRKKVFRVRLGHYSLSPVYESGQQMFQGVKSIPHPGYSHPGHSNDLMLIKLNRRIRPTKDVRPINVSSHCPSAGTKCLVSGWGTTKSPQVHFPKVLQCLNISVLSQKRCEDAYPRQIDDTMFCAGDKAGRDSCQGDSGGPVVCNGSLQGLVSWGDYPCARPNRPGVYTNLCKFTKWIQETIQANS", "assay": "Inhibitor kinetics: KLK5 amidolytic activity", "assay_type": "biochemical", "conditions": "substrate Bz-PFR-pNA (0.2 mM)"}, "iKLK4": {"tested_on": "iKLK4", "assay": "KLK4 stimulated calcium release in LMF stably expressing human PAR-2", "assay_type": "cell-based", "description": "(§2) Lung murine fibroblasts (LMF) from Par-1 null mice stably expressing human PAR-2 were grown to 80% confluence as previously described, washed with PBS, detached nonenzymatically, resuspended (4×10^6 cells/ml) in extracellular medium (121 mM NaCl, 5.4 mM KCl, 0.8 mM MgCl2, 1.8 mM CaCl2, 5.5 mM glucose, 25 mM HEPES (pH 7.4)) containing 0.2% (w/v) bovine serum albumin (Sigma) and then loaded with the fluorescence indicator Fura-2 acetoxymethyl ester (1.0 μM; Invitrogen) at room temperature for 60 min. Cells were then pelleted followed by resuspension in extracellular medium (without bovine serum albumin) at a concentration of 2×10^6 cells/ml for fluorescence measurements. The ratio of fluorescence at 510 nm after excitation at 340 and 380 nm was monitored (Polarstar Optima fluorescent plate reader) during treatment with bovine β trypsin (Sigma Chemicals), PAR-2 activating peptide SLIGKV (AusPep) and iKLK4 with or without SFTI-FCQR."}, "[1]": {"assay": "Stability of SFTI variants in contact with prostate cancer cells in vitro", "assay_type": "in vitro ADME", "conditions": "for half-life at 1 μM: RPMI 1640 with 10% fetal calf serum, read-out: t1/2 of residual inhibitory activity (converted)", "description": "Cell monolayers of LNCaP, 22Rv1 and PC3 cells were established in RPMI 1640 medium containing 10% fetal calf serum. Each cell line was treated +/−1 μM SFTI-FCQR contained in 4.0 mL RPMI media (as above) with a vehicle control to account for inhibition by intrinsic media factors. 25 μL samples of media were taken at 0, 24, 48, 72, 96 and 120 hrs timepoints. Media samples were boiled at 97° C. for 15 min, centrifuged at 14,000 rpm for 5 min to remove cellular debris and precipitated protein. Residual SFTI-FCQR inhibitory activity in the medium was determined against recombinant KLK4 using FVQR-pNA as a peptide substrate as above using 15ng KLK4 and 30 nmol FVQR-pNA with 2.5 μL and […] of media+/−SFTI-FCQR added from each treatment."}, "bovine β trypsin": {"tested_on": "bovine β trypsin", "assay": "Trypsin stimulated calcium release in LMF stably expressing human PAR-2", "assay_type": "cell-based", "conditions": "1 μM SFTI-FCQR, trypsin 10 nM", "description": "as §2"}, "human PAR-2": {"tested_on": "human PAR-2", "assay": "PAR-2 activating peptide stimulated calcium release in LMF stably expressing human PAR-2", "assay_type": "cell-based", "description": "as §2"}, "human matriptase": {"biological_target": "T2, human matriptase (Homo sapiens, UniProt Q9Y5Y6)", "T2 construct": "purchased R&D Systems", "T2 sequence (Q9Y5Y6 615-855 limits assumed)": "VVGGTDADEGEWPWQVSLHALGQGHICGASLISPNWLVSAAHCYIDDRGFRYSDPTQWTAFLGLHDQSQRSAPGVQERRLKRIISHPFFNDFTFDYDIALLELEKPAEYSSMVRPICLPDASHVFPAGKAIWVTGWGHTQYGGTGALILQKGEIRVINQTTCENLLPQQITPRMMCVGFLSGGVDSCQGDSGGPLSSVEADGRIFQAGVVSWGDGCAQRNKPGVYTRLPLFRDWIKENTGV", "assay": "Inhibitor kinetics: matriptase amidolytic activity", "assay_type": "biochemical", "conditions": "substrate Bz-FVR-pNA (0.2 mM)", "description": "as §1"}}, "note": "“Also recorded” adds a separate entry of the source. Where two headings read alike, the source gives them in different places. Bridge positions count the residues as written; N and C are the ends. Peptide text beside a SMILES is read from it.", "data": [{"smiles": "CC[C@H](C)[C@@H]1NC(=O)[C@@H]2CCCN2C(=O)[C@@H]2CCCN2C(=O)[C@H]([C@@H](C)CC)NC(=O)[C@H](CO)NC(=O)[C@H](CCCNC(=N)N)NC(=O)[C@H](CCC(N)=O)NC(=O)[C@@H]2CSSC[C@H](NC1=O)C(=O)N[C@@H](Cc1ccccc1)C(=O)N1CCC[C@H]1C(=O)N[C@@H](CC(=O)O)C(=O)NCC(=O)N[C@@H](Cc1ccccc1)C(=O)N2", "note": "[SFTI-FCQR] (cyclo(GFCQRSIPPICFPD); disulfide 3-11)", "values": [{"measurement": "IC50", "setting": "bovine α-chymotrypsin", "result": "did not inhibit"}, {"measurement": "IC50", "setting": "bovine α-chymotrypsin; read-out: IC50", "result": "> 10", "unit": "µM"}, {"measurement": "IC50", "setting": "KLK5", "result": "2.35 ± 0.721", "unit": "µM"}, {"measurement": "effect on KLK4 stimulated calcium release", "setting": "iKLK4; 1 μM SFTI-FCQR, iKLK4 300 nM", "result": "extremely robust blockade of calcium release"}, {"measurement": "inhibition of KLK4 stimulated calcium flux", "setting": "iKLK4; at a concentration of 1 mM (as printed in discussion)", "result": "complete inhibition"}, {"measurement": "residual inhibition of recombinant KLK4 by tissue culture supernatant", "setting": "[1]; 1:5 dilution of supernatant, after a week of contact with prostate cancer cells", "result": "complete inhibition"}, {"measurement": "half-life at 1 μM", "setting": "[1]; 22Rv1 cell monolayers, 1 μM incubated with 22RV1 cells", "result": 117, "unit": "h"}, {"measurement": "half-life at 1 μM", "setting": "[1]; LNCaP cell monolayers, 1 μM incubated with LNCaP cells", "result": 119, "unit": "h"}, {"measurement": "half-life at 1 μM", "setting": "[1]; PC3 cell monolayers, 1 μM incubated with PC3 cells", "result": 89, "unit": "h"}, {"measurement": "effect on trypsin stimulated calcium release", "setting": "bovine β trypsin", "result": "permissive for calcium release; also recorded: no effect; also recorded: increased intracellular Ca^2+ ion concentration"}, {"measurement": "effect on calcium release by PAR-2 activating peptide", "setting": "human PAR-2; 1 μM SFTI-FCQR, PAR-2 activating peptide 100 nM", "result": "permissive for calcium release; also recorded: no effect"}, {"measurement": "effect on intracellular Ca^2+ of inhibitor alone", "setting": "human PAR-2; SFTI-FCQR 1 μM without agonist", "result": "no effect"}, {"measurement": "IC50", "setting": "human matriptase", "result": "did not inhibit"}, {"measurement": "IC50", "setting": "human matriptase; read-out: IC50", "result": "> 10", "unit": "µM"}]}]}
